Laboratory results: patent US20250223618A1, “METHOD FOR PRODUCING MULTI-HYDROXY DERIVATIVES OF POLYUNSATURATED FATTY ACIDS” (KOREA RESEARCH INSTITUTE OF BIOSCIENCE AND BIOTECHNOLOGY, priority 2018, published 2025)

Key:
[1] = system: human breast cancer cells MDA-MB-231; experiment: Proliferation of human breast cancer cells; type: cell-based; conditions: same concentration as in mammospheres (0 to 60 μM), FIG. 10A
Protocol: (§1) The purified derivatives were treated to human beast cancer cells and human beast cancer-derived cancer stem cells and then the effects thereof were confirmed.
More specifically, first, human breast cancer cells MDA-MB-231 (ATCC) were incubated at a density of 1×10^6 cells in a 10 cm culture dish with a DMEM medium added with 10% fetal bovine serum (FBS, Hyclone), 100 U/ml penicillin, and 100 μg/ml of streptomycin (carbon dioxide 5%, 37° C.).

[2] = system: mammospheres of the human beast cancer-derived cancer stem cells; experiment: Proliferation of mammospheres of breast cancer-derived cancer stem cells; type: cell-based; conditions: treated at the concentration of 0 to 60 μM; FIG. 10A/10B
Protocol: as §1
The human breast cancer cells MDA-MB-231 were incubated at a density of 0.5 to 1×10^4 cells in a ultra-low attachment 6-well plate containing 2 ml of a Complete MammoCult™ medium (StemCell Technologies, Canada) added with 4 μg/ml of heparin, 0.48 μg/ml of hydrocortisone, 100 U/ml of penicillin, and 100 μg/ml of streptomycin (carbon dioxide 5%, 37° C.) to form mammospheres of the human beast cancer-derived cancer stem cells.

[3] = target: Protein having amino acid sequence of SEQ ID NO: 1 (protein K9V_A296G; enzyme for producing di-hydroxy derivative of polyunsaturated fatty acids) (Phormidium nigroviride, UniProt K9VMV7, A296G); conditions: pH 8.0, 20° C.
Protocol: At this time, 50 mM of a sodium phosphate buffer in the case of pH 7.0, 50 mM of a Tris-HCl buffer in the case of pH 8.0, and 50 mM of a sodium borate buffer in the case of pH 9.0 to pH 11.0 were used, respectively.

[4] = target: T1, Protein having amino acid sequence of SEQ ID NO: 2 (protein K9V; enzyme for producing tri-hydroxy or tetra-hydroxy derivative of polyunsaturated fatty acids) (Phormidium nigroviride, UniProt K9VMV7); experiment: Reaction rate (Km, Kcat) under optimal conditions, protein of SEQ ID NO: 2; type: biochemical; conditions: pH 7.0, 30° C.
T1 construct: Ni-NTA purified
T1 sequence (K9VMV7 1-571): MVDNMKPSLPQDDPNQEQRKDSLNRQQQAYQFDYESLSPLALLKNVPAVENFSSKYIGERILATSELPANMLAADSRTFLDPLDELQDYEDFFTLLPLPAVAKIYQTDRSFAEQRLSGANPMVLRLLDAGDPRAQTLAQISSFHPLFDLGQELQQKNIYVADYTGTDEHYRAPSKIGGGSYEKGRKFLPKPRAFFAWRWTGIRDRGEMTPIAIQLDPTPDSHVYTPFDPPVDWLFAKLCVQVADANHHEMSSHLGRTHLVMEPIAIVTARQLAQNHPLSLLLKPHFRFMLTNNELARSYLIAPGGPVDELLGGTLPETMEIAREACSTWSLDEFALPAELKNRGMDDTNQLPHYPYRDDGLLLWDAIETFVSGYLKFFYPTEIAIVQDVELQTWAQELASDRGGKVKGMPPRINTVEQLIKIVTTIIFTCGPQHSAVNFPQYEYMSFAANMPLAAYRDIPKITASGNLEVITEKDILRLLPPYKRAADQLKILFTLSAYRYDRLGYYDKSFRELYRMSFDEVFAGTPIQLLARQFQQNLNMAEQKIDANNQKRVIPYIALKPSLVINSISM
Text: Under optimal conditions confirmed in [4-1] and [4-2] above, Km and Kcat values of the protein having the amino acid sequence of SEQ ID NO: 1 and the protein having the amino acid sequence of SEQ ID NO: 2 were examined.

[5] = Effect of temperature on enzyme activity (13S-hydroxy-octadecadienoic acid formed); type: biochemical; conditions: 100 μM linoleic acid, pH 7, 20° C. to 50° C., 30 minutes
Protocol: (§2) In the same manner as in Example [3-1], the concentration of 13S-hydroxy-octadecadienoic acid in the reaction product was measured, and relative values thereof were compared with each other.

[6] = Effect of pH on enzyme activity (13S-hydroxy-octadecadienoic acid formed); type: biochemical; conditions: 10 KU/ml protein, 100 μM linoleic acid, 30 minutes
Protocol: as §2

## CCC(O)/C=C/C=C/C=C/C(O)C/C=C/C/C=C/C/C=C/CCC(=O)O (stereo not shown) [di-hydroxy derivative]
[1]
  proliferation of the breast cancer cells: no effect
[2]
  proliferation of the mammospheres of the beast cancer-derived cancer stem cells: inhibited

## CCCCC/C=C\C/C=C\CCCCCCCC(=O)O [linoleic acid]
[3]
  Kcat: 23.52 ± 1.0 min⁻¹
  Km: 46.8 ± 1 µM
[4]
  Kcat: 0.4 ± 0.02 min⁻¹
  Km: 79.4 ± 0.8 µM

B1: Protein having amino acid sequence of SEQ ID NO: 1: enzyme for producing a di-hydroxy derivative of polyunsaturated fatty acids, about 65 KDa, expressed in E. coli (protein)
chain: MVDNMKPSLPQDDPNQEQRKDSLNRQQQAYQFDYESLSPLALLKNVPAVENFSSKYIGERILATSELPANMLAADSRTFLDPLDELQDYEDFFTLLPLPAVAKIYQTDRSFAEQRLSGANPMVLRLLDAGDPRAQTLAQISSFHPLFDLGQELQQKNIYVADYTGTDEHYRAPSKIGGGSYEKGRKFLPKPRAFFAWRWTGIRDRGEMTPIAIQLDPTPDSHVYTPFDPPVDWLFAKLCVQVADANHHEMSSHLGRTHLVMEPIAIVTARQLAQNHPLSLLLKPHFRFMLTNNELGRSYLIAPGGPVDELLGGTLPETMEIAREACSTWSLDEFALPAELKNRGMDDTNQLPHYPYRDDGLLLWDAIETFVSGYLKFFYPTEIAIVQDVELQTWAQELASDRGGKVKGMPPRINTVEQLIKIVTTIIFTCGPQHSAVNFPQYEYMSFAANMPLAAYRDIPKITASGNLEVITEKDILRLLPPYKRAADQLKILFTLSAYRYDRLGYYDKSFRELYRMSFDEVFAGTPIQLLARQFQQNLNMAEQKIDANNQKRVIPYIALKPSLVINSISM
modifications: K9V_A296G
notes: enzyme for producing a di-hydroxy derivative of polyunsaturated fatty acids, about 65 KDa, expressed in E. coli
[5]; 50 KU/ml protein, FIG. 9A
  temperature of better (optimal) enzyme activity: ~20 °C
[6]; pH 7 to pH 11, 25° C., FIG. 8A
  pH of better (optimal) enzyme activity: ~8.0

B2: Protein having amino acid sequence of SEQ ID NO: 2: enzyme for producing a tri-hydroxy or tetra-hydroxy derivative of polyunsaturated fatty acids, about 65 KDa, expressed in E. coli (protein)
chain: MVDNMKPSLPQDDPNQEQRKDSLNRQQQAYQFDYESLSPLALLKNVPAVENFSSKYIGERILATSELPANMLAADSRTFLDPLDELQDYEDFFTLLPLPAVAKIYQTDRSFAEQRLSGANPMVLRLLDAGDPRAQTLAQISSFHPLFDLGQELQQKNIYVADYTGTDEHYRAPSKIGGGSYEKGRKFLPKPRAFFAWRWTGIRDRGEMTPIAIQLDPTPDSHVYTPFDPPVDWLFAKLCVQVADANHHEMSSHLGRTHLVMEPIAIVTARQLAQNHPLSLLLKPHFRFMLTNNELARSYLIAPGGPVDELLGGTLPETMEIAREACSTWSLDEFALPAELKNRGMDDTNQLPHYPYRDDGLLLWDAIETFVSGYLKFFYPTEIAIVQDVELQTWAQELASDRGGKVKGMPPRINTVEQLIKIVTTIIFTCGPQHSAVNFPQYEYMSFAANMPLAAYRDIPKITASGNLEVITEKDILRLLPPYKRAADQLKILFTLSAYRYDRLGYYDKSFRELYRMSFDEVFAGTPIQLLARQFQQNLNMAEQKIDANNQKRVIPYIALKPSLVINSISM
modifications: enzyme (K9V)
notes: enzyme for producing a tri-hydroxy or tetra-hydroxy derivative of polyunsaturated fatty acids, about 65 KDa, expressed in E. coli
[5]; 10 KU/ml protein, FIG. 9B
  temperature of better (optimal) enzyme activity: ~30 °C
[6]; pH 6 to pH 11, 25° C., FIG. 8B
  pH of better (optimal) enzyme activity: ~8.0
